pIC50: −log10 of the molar value.

This assay concerns the target T1, AKT1-E17K (Homo sapiens, UniProt P31749, E17K).
T1 construct: host or cells: HEK-293 (ATCC CRL-1573)
Briefly: NanoBRET Target Engagement (TE) Assay. Format: cell-based. The text has this: The NanoBRET™ Target Engagement (TE) Intracellular Kinase Assays are based on the NanoBRET™ System (Promega Corporation), an energy transfer technique designed to measure molecular proximity in living cells. The NanoBRET™ TE Assays measure the apparent affinity of test compounds by competitive displacement of the NanoBRET™ tracer compound, which is a cell permeable molecule engineered to be reversibly bound to a NanoLuc® luciferase-kinase fusion expressed in cells. For compound screening, when a test compound binds to the selected kinase, the BRET signal is attenuated. […] All cells were evaluated for viability prior to transfection and optimization of the transfection was done prior to experimentation. […] Following transfection, cells were washed and resuspended in Opti-MEM. NanoBRET assays were performed in white, 384-well plates (Corning) at a density of […]. All example compounds were prepared as concentrated stock solutions in DMSO (Sigma-Aldrich). Compounds are dissolved in DMSO to make 10 mM stock solution. […] A Labcyte ECHO 550 compound dispenser was used to facilitate compound transfer directly to cells. Cells were equilibrated for 2 hr with energy transfer probes and example compound prior to BRET measurements. […] For target engagement analysis, the energy transfer probes were added to the cells at concentrations optimized for the target in question (AKT E17K). Following compound incubation, NanoBRET NanoGlo Substrate (Promega Cat #N157D) and Extracellular Nanoluc Inhibitor (Promega Cat #N235C) was added according to the manufacturer's recommended protocol, and luminescence was measured on Envision Reader (Perkin Elmer) Multimode Luminometer equipped with 450 nmBPfilter (donor) and 600 nmLPfilter (acceptor), using 0.5 s integration time. Milli-BRET units (mBU) are calculated by multiplying the raw BRET values by 1000. Apparent tracer affinity values (EC50) were determined using the sigmoidal dose-response (variable slope). Competitive displacement data were then plotted and data were fit to determine the EC50 value for each example compound.

T1 sequence (P31749 whole entry E17K): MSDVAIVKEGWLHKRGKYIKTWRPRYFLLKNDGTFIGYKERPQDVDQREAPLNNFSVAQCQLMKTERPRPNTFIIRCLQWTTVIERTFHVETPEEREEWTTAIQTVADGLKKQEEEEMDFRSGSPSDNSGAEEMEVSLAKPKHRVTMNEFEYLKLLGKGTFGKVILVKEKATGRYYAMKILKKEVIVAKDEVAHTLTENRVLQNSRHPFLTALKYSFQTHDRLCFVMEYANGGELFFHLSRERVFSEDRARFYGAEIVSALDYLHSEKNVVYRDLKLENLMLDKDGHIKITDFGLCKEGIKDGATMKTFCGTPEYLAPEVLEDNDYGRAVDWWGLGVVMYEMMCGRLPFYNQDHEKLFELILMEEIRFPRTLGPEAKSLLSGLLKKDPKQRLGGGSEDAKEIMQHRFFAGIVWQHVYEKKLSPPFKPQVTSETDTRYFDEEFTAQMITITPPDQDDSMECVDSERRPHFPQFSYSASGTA

On to `Nc1ncccc1-c1nc2ccc(-c3ccccc3)nc2n1-c1ccc(CN2CC3(CC(NC(=O)c4ccc(O)c(C=O)c4)C3)C2)cc1` [Example 69, N-(2-(4-(2-(2-Aminopyridin-3-yl)-5-phenyl-3H-imidazo[4,5-b]pyridin-3-yl)benzyl)-2-azaspiro[3.3]heptan-6-yl)-3-formyl-4-hydroxybenzamide], for which the pIC50 is over 7.82.

As to `C[C@@H]1CN(Cc2ccc(-n3c(-c4cccnc4N)nc4ccc(-c5ccccc5)nc43)cc2)CCN1c1ccc(C=O)c(O)c1` [Example 104, (R)-4-(4-(4-(2-(2-Aminopyridin-3-yl)-5-phenyl-3H-imidazo[4,5-b]pyridin-3-yl)benzyl)-2-methylpiperazin-1-yl)-2-hydroxybenzaldehyde], the pIC50 was 6.22 to 7.22.

For `Nc1ncccc1-c1nc2ccc(-c3ccccc3)nc2n1-c1ccc(CN2CCC3(CC2)CCN(C(=O)c2ccc(C=O)c(O)c2)CC3)cc1` [Example 152, 4-(9-(4-(2-(2-aminopyridin-3-yl)-5-phenyl-3H-imidazo[4,5-b]pyridin-3-yl)benzyl)-3,9-diazaspiro[5.5]undecane-3-carbonyl)-2-hydroxybenzaldehyde], the pIC50 is 6.22 to 7.22.

For the compound `N#Cc1ccc(-c2ccc3nc(-c4cccnc4N)n(-c4ccc(CN5CCN(C(=O)c6ccc(C=O)c(O)c6)CC5)cc4)c3n2)cc1` [Example 39, 4-(2-(2-Aminopyridin-3-yl)-3-(4-((4-(4-formyl-3-hydroxybenzoyl)piperazin-1-yl)methyl)phenyl)-3H-imidazo[4,5-b]pyridin-5-yl)benzonitrile], the pIC50 is 6.22 to 7.22.

Turning to `Nc1ncccc1-c1nc2ccc(-c3ccccc3F)nc2n1-c1ccc(CN2CCN(C(=O)c3ccc(O)c(C=O)c3)CC2)cc1` [Example 141, 5-(4-(4-(2-(2-Aminopyridin-3-yl)-5-(2-fluorophenyl)-3H-imidazo[4,5-b]pyridin-3-yl)benzyl)piperazine-1-carbonyl)-2-hydroxybenzaldehyde], the negative logarithm of the IC50 (pIC50) is 7.22 to 7.82.

For the compound `Nc1ncccc1-c1nc2ccc(-c3ccccc3)nc2n1-c1ccc(CN2CC[C@@]3(CCN(c4ccc(C=O)c(O)c4)C3)C2)cc1` [Example 100, (R)-4-(7-(4-(2-(2-Aminopyridin-3-yl)-5-phenyl-3H-imidazo[4,5-b]pyridin-3-yl)benzyl)-2,7-diazaspiro[4.4]nonan-2-yl)-2-hydroxybenzaldehyde], the pIC50 was 6.22 to 7.22.

Turning to `Nc1ncccc1-c1nc2ccc(-c3ccccc3)nc2n1-c1ccc(CN2CCN(C(=O)c3ccc(O)c(C=O)c3)CC2)cc1` [Example 5, 5-(4-(4-(2-(2-Aminopyridin-3-yl)-5-phenyl-3H-imidazo[4,5-b]pyridin-3-yl)benzyl)piperazine-1-carbonyl)-2-hydroxybenzaldehyde], the pIC50 was 6.22 to 7.22.

`Nc1ncccc1-c1nc2ccc(-c3ccccc3)nc2n1-c1ccc(CN2CC3(C2)CN(C(=O)c2ccc(C=O)c(O)c2)C3)cc1` [Example 66, 4-(6-(4-(2-(2-Aminopyridin-3-yl)-5-phenyl-3H-imidazo[4,5-b]pyridin-3-yl)benzyl)-2,6-diazaspiro[3.3]heptane-2-carbonyl)-2-hydroxybenzaldehyde] showed a pIC50 of 6.22 to 7.22.

The compound `Nc1ncccc1-c1nc2ccc(C3=CCCCC3)nc2n1-c1ccc(CN2CCN(C(=O)c3ccc(O)c(C=O)c3)CC2)cc1` [Example 150, 5-(4-(4-(2-(2-aminopyridin-3-yl)-5-(cyclohex-1-en-1-yl)-3H-imidazo[4,5-b]pyridin-3-yl)benzyl)piperazine-1-carbonyl)-2-hydroxybenzaldehyde] gave a pIC50 of 6.22 to 7.22.

`Nc1ncccc1-c1nc2ccc(-c3ccc[nH]c3=O)nc2n1-c1ccc(CN2CCN(C(=O)c3ccc(O)c(C=O)c3)CC2)cc1` [Example 14, 5-(4-(4-(2-(2-Aminopyridin-3-yl)-5-(2-oxo-1,2-dihydropyridin-3-yl)-3H-imidazo[4,5-b]pyridin-3-yl)benzyl)piperazine-1-carbonyl)-2-hydroxybenzaldehyde] showed a pIC50 of under 6.22.

For the compound `Nc1ncccc1-c1nc2ccc(-c3ccc(Cl)cc3)nc2n1-c1ccc(CN2CCN(C(=O)c3ccc(C=O)c(O)c3)CC2)cc1` [Example 148, 4-(4-(4-(2-(2-aminopyridin-3-yl)-5-(4-chlorophenyl)-3H-imidazo[4,5-b]pyridin-3-yl)benzyl)piperazine-1-carbonyl)-2-hydroxybenzaldehyde], the pIC50 is under 6.22.

For the compound `Nc1ncccc1-c1nc2ccc(-c3ccccc3)nc2n1-c1ccc(CN2CCC3(CC2)CCN(C(=O)c2ccc(O)c(C=O)c2)CC3)cc1` [Example 77, 5-(9-(4-(2-(2-Aminopyridin-3-yl)-5-phenyl-3H-imidazo[4,5-b]pyridin-3-yl)benzyl)-3,9-diazaspiro[5.5]undecane-3-carbonyl)-2-hydroxybenzaldehyde], the pIC50 was 6.22 to 7.22.

`Nc1ncccc1-c1nc2ccc(-c3ccccc3)nc2n1-c1ccc(CN2C[C@H]3C[C@@H]2CN3C(=O)c2ccc(C=O)c(O)c2)cc1` [Example 56, 4-((1R,4R)-5-(4-(2-(2-Aminopyridin-3-yl)-5-phenyl-3H-imidazo[4,5-b]pyridin-3-yl)benzyl)-2,5-diazabicyclo[2.2.1]heptane-2-carbonyl)-2-hydroxybenzaldehyde] gave a pIC50 of 6.22 to 7.22.

As to `Nc1ncccc1-c1nc2ccc(-c3ccccc3)nc2n1-c1ccc(CN2CCC3(C2)CN(c2ccc(C=O)c(O)c2)C3)cc1` [Example 79, 4-(6-(4-(2-(2-Aminopyridin-3-yl)-5-phenyl-3H-imidazo[4,5-b]pyridin-3-yl)benzyl)-2,6-diazaspiro[3.4]octan-2-yl)-2-hydroxybenzaldehyde], the pIC50 is 7.22 to 7.82.

Take `Nc1ncccc1-c1nc2ccc(-c3ccccc3)nc2n1-c1ccc(CN2C[C@H]3C[C@@H]2CN3c2ccc(C=O)c(O)c2)cc1` [Example 124, 4-((1R,4R)-5-(4-(2-(2-Aminopyridin-3-yl)-5-phenyl-3H-imidazo[4,5-b]pyridin-3-yl)benzyl)-2,5-diazabicyclo[2.2.1]heptan-2-yl)-2-hydroxybenzaldehyde]: the pIC50 is 7.22 to 7.82.

In the case of `Nc1ncccc1-c1nc2ccc(-c3ccccc3)nc2n1-c1ccc(CN2CCC3(CCN(c4ccc(C=O)c(O)c4)CC3)C2)cc1` [Example 85, 4-(2-(4-(2-(2-Aminopyridin-3-yl)-5-phenyl-3H-imidazo[4,5-b]pyridin-3-yl)benzyl)-2,8-diazaspiro[4.5]decan-8-yl)-2-hydroxybenzaldehyde], the pIC50 was 6.22 to 7.22.

Regarding `Nc1ncccc1-c1nc2ccc(C3=CCOCC3)nc2n1-c1ccc(CN2CCN(C(=O)c3ccc(C=O)c(O)c3)CC2)cc1` [Example 30, 4-(4-(4-(2-(2-Aminopyridin-3-yl)-5-(3,6-dihydro-2H-pyran-4-yl)-3H-imidazo[4,5-b]pyridin-3-yl)benzyl)piperazine-1-carbonyl)-2-hydroxybenzaldehyde], the pIC50 was 6.22 to 7.22.

`Nc1ncccc1-c1nc2ccc(-c3cccc(F)c3)nc2n1-c1ccc(CN2CCN(C(=O)c3ccc(O)c(C=O)c3)CC2)cc1` [Example 40, 5-(4-(4-(2-(2-Aminopyridin-3-yl)-5-(3-fluorophenyl)-3H-imidazo[4,5-b]pyridin-3-yl)benzyl)piperazine-1-carbonyl)-2-hydroxybenzaldehyde]: the pIC50 was 6.22 to 7.22.

For the compound `Nc1ncccc1-c1nc2ccc(-c3ccccc3)nc2n1-c1ccc(CN2C[C@@H]3CN(c4ccc(C=O)c(O)c4)C[C@@H]3C2)cc1` [Example 133, 4-((3aR,6aS)-5-(4-(2-(2-Aminopyridin-3-yl)-5-phenyl-3H-imidazo[4,5-b]pyridin-3-yl)benzyl)hexahydropyrrolo[3,4-c]pyrrol-2(1H)-yl)-2-hydroxybenzaldehyde], the negative-log IC50 (pIC50) was 6.22 to 7.22.

`Nc1ncccc1-c1nc2ccc(-c3ccccc3)nc2n1-c1ccc(CN2CC3CCC(C2)N3C(=O)c2ccc(C=O)c(O)c2)cc1` [Example 109, 4-(3-(4-(2-(2-Aminopyridin-3-yl)-5-phenyl-3H-imidazo[4,5-b]pyridin-3-yl)benzyl)-3,8-diazabicyclo[3.2.1]octane-8-carbonyl)-2-hydroxybenzaldehyde]: the pIC50 is under 6.22.

The compound `Nc1ncccc1-c1nc2ccc(-c3ccccc3)nc2n1-c1ccc(CN2C[C@@H]3CN(c4ccc(O)c(C=O)c4)C[C@@H]3C2)cc1` [Example 134, 5-((3aR,6aS)-5-(4-(2-(2-Aminopyridin-3-yl)-5-phenyl-3H-imidazo[4,5-b]pyridin-3-yl)benzyl)hexahydropyrrolo[3,4-c]pyrrol-2(1H)-yl)-2-hydroxybenzaldehyde] showed a pIC50 of 6.22 to 7.22.

In turn, `Nc1ncccc1-c1nc2ccc(-c3ccccc3)nc2n1-c1ccc(CN2C[C@H]3CN(C(=O)c4ccc(O)c(C=O)c4)C[C@@H]3C2)cc1` [Example 135, 5-((3aS,6aS)-5-(4-(2-(2-Aminopyridin-3-yl)-5-phenyl-3H-imidazo[4,5-b]pyridin-3-yl)benzyl)octahydropyrrolo[3,4-c]pyrrole-2-carbonyl)-2-hydroxybenzaldehyde] had a pIC50 of 7.22 to 7.82.

Usually pIC50 stands for the IC50 on a negative log10 scale, so that one unit is a factor of ten. High values mean a small IC50, low ones a large IC50.

The values above are taken from US20260365647A1, “AKT1 MODULATORS” (Alterome Therapeutics, Inc., priority 2022, published 2026).
